Publication PMC11412156 (Journal of medicinal chemistry, 2024)
“And” between values parts separate entries of the source, which are not always exact repeats. Identical values can stand only once.

Experiments:
[1] = In vitro metabolic stability in rat liver microsomes; type: in vitro ADME; conditions: for half-life: Sprague-Dawley, rat, liver microsomes, pH 7.4; for metabolic stability in RLM, column 0: incubation 0 min; for metabolic stability in RLM, column 0 / metabolic stability in RLM, column 10 / metabolic stability in RLM, column 30 / metabolic stability in RLM, column 45 / metabolic stability in RLM, column 60: 37 °C, NADPH; for metabolic stability in RLM, column 10: incubation 10 min; for metabolic stability in RLM, column 30: incubation 30 min; for metabolic stability in RLM, column 45: incubation 45 min; for metabolic stability in RLM, column 60: incubation 60 min
MsEH = target: T1, MsEH (Mus musculus, UniProt P34914); test: fluorescent-based sEH assay with PHOME as substrate; type: biochemical
T1 sequence (P34914 1-554): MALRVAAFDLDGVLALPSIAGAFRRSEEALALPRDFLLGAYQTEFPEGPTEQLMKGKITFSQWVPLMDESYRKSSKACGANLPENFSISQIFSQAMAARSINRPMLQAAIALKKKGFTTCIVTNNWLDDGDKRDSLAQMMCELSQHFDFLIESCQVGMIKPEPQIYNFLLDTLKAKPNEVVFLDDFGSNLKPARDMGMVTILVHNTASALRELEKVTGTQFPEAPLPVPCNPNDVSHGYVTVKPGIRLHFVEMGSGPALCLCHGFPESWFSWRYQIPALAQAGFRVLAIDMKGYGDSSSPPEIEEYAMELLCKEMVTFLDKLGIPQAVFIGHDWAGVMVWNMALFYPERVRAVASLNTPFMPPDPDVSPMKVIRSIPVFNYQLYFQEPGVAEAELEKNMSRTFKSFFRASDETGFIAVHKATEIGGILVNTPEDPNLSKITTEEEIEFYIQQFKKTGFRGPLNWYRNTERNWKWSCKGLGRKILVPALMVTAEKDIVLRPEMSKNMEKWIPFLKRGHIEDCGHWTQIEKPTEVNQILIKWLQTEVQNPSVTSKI

[2] = Pharmacokinetic study in rats; type: in vivo, SD rats; conditions: for CL / Vz: SD rats, ig (oral) 50 mg/kg; for AUC(0-inf) / AUC(0-t) / Cmax / Tmax / Vd / clearance / half-life / bioavailability: both, Sprague-Dawley, rat, plasma; for bioavailability: oral
HDAC3 = HDAC3 (Homo sapiens, UniProt O15379); test: HDAC enzyme-based fluorogenic assay, HDAC3; type: biochemical
HDAC8 = target: T2, HDAC8 (Homo sapiens, UniProt Q9BY41); test: HDAC enzyme-based fluorogenic assay, HDAC8; type: biochemical
T2 sequence (Q9BY41 1-377): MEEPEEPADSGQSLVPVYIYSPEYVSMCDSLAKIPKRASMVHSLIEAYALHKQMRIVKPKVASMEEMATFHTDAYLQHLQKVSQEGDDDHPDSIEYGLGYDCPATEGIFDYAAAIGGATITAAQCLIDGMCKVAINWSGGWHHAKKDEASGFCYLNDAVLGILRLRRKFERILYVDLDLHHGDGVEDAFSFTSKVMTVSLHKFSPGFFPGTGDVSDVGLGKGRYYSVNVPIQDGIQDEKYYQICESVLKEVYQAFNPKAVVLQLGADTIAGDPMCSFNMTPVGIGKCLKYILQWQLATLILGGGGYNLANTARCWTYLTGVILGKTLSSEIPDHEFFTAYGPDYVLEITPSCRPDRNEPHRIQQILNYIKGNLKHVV

HDAC1 = HDAC1 (Homo sapiens, UniProt Q13547); test: HDAC enzyme-based fluorogenic assay, HDAC1; type: biochemical
[3] = Plasma protein binding by equilibrium dialysis; type: in vitro ADME; conditions: rat
HDAC6 = target: T3, HDAC6 (Homo sapiens, UniProt Q9UBN7); test: HDAC enzyme-based fluorogenic assay, HDAC6; type: biochemical; conditions: for HDAC6 inhibitor rate: final concentration of 2 μM, preliminary screen; for Selectivity Index HDAC1/HDAC6 / Selectivity Index HDAC2/HDAC6 / Selectivity Index HDAC3/HDAC6 / Selectivity Index HDAC8/HDAC6 / Selectivity Index HDAC11/HDAC6: ratio of IC50 values
T3 sequence (Q9UBN7 1-1215): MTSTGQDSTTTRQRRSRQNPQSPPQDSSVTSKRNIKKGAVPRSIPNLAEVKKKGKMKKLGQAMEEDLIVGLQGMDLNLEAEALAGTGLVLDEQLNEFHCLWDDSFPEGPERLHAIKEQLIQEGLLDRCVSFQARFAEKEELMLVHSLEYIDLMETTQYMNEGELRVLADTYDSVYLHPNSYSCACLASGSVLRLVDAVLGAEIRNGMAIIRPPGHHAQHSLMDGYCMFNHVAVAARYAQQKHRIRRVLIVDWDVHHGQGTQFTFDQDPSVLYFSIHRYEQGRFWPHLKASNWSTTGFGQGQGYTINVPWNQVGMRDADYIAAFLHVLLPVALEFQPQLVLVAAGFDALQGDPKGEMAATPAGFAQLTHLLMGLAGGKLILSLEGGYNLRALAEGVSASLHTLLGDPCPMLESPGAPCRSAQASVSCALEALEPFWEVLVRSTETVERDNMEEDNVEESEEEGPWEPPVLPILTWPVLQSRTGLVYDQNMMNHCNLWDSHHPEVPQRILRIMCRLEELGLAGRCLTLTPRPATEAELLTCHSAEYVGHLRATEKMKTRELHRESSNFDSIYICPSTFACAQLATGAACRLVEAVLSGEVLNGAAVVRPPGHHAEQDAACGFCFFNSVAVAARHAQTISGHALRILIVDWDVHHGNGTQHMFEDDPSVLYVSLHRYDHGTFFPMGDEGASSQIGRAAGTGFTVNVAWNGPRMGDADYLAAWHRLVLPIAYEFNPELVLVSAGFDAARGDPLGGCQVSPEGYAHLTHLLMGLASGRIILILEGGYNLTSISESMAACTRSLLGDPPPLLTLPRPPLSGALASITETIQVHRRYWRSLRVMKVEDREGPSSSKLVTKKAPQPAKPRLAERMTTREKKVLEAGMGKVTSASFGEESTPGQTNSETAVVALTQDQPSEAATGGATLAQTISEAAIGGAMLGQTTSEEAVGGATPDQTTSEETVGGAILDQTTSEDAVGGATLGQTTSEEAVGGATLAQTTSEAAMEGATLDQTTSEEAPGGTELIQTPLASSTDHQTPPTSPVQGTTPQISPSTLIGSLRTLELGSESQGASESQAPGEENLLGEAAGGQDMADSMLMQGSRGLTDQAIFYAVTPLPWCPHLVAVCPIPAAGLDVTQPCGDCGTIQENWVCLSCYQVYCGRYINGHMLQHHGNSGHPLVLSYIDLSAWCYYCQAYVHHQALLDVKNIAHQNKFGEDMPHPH

HDAC2 = HDAC2 (Homo sapiens, UniProt Q92769); test: HDAC enzyme-based fluorogenic assay, HDAC2; type: biochemical
HDAC2, sequence (Q92769 whole entry): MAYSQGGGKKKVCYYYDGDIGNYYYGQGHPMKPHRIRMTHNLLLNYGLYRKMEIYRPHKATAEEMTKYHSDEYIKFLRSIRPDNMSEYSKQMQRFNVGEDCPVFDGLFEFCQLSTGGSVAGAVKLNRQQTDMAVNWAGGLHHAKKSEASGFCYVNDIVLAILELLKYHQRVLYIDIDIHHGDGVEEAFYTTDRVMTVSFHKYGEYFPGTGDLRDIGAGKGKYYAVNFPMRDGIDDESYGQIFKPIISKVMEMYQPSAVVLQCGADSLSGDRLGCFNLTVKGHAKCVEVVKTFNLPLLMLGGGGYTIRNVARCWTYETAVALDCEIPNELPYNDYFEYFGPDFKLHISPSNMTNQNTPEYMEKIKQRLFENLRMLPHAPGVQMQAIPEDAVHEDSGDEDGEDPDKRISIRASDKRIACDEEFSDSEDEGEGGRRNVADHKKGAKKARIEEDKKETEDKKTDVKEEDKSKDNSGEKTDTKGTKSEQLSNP

HDAC3, sequence (O15379 whole entry): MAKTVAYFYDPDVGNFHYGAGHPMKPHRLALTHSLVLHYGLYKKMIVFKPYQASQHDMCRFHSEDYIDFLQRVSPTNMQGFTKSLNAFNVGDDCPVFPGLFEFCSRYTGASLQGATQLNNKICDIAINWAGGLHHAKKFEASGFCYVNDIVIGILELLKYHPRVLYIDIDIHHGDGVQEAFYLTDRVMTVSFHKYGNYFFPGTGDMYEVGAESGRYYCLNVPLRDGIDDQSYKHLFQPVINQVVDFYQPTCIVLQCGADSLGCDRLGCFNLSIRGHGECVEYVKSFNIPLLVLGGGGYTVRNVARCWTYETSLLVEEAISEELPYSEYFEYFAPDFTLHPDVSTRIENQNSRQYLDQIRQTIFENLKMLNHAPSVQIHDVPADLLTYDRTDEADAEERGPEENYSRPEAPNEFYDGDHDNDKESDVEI
HDAC3, sequence (Q9Y618 395-489 partner limits assumed): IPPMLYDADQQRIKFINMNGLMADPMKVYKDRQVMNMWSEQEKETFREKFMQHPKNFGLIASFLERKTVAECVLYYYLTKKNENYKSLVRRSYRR
HDAC1, sequence (Q13547 whole entry): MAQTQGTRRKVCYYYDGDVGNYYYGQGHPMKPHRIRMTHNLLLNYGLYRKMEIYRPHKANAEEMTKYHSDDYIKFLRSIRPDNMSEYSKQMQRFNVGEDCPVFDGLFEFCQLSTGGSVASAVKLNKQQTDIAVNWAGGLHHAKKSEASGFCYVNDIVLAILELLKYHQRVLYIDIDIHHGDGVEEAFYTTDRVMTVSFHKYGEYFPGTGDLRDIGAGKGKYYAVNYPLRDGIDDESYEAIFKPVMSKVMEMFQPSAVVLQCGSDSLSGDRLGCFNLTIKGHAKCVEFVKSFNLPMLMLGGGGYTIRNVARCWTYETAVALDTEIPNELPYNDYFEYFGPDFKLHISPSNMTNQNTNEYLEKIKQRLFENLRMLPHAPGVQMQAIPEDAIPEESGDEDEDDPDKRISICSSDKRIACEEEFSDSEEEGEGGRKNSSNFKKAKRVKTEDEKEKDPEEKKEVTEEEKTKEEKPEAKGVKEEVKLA

| Compound | half-life [1] | metabolic stability in RLM, column 0 [1] | metabolic stability in RLM, column 10 [1] | metabolic stability in RLM, column 30 [1] | metabolic stability in RLM, column 45 [1] | metabolic stability in RLM, column 60 [1] | IC50 (MsEH) | CL [2] | Vz [2] | AUC(0-inf) ([2]; iv, 10 mg/kg) | AUC(0-t) ([2]; iv, 10 mg/kg) | Cmax ([2]; iv, 10 mg/kg) | Tmax ([2]; iv, 10 mg/kg) | Vd ([2]; iv, 10 mg/kg) | clearance ([2]; iv, 10 mg/kg) | half-life ([2]; iv, 10 mg/kg) | bioavailability ([2]; 50 mg/kg) | AUC(0-inf) ([2]; po, 50 mg/kg) | AUC(0-t) ([2]; po, 50 mg/kg) | Cmax ([2]; po, 50 mg/kg) | also measured |
| --- | --- | --- | --- | --- | --- | --- | --- | --- | --- | --- | --- | --- | --- | --- | --- | --- | --- | --- | --- | --- | --- |
| O=C(CCCCCCNC(=O)[C@H]1CCCN(C(=O)c2ccc(NC(=O)Nc3ccc(Cl)c(F)c3)c(F)c2)C1)NO [Compound 28g, (S)-1-(4-(3-(4-Chloro-3-fluorophenyl)ureido)-3-fluorobenzoyl)-N-(7-(hydroxyamino)-7-oxoheptyl)piperidine-3-carboxamide] | 2.28 h | 100.00 | 91.61 | 83.80 | 78.76 | 70.64 | 46.8 nM | 0.82 L/h | 4.20 L | 21.2 µM·h | 12.3 µM·h | 7.87 µM | 0.08 h | 1.28 L | 2.67 mL/min | 5.43 h | 24.4% | 21.2 µM·h | 15 µM·h | 6.63 µM | Tmax ([2]; po, 50 mg/kg): 0.5 h; half-life ([2]; po, 50 mg/kg): 3.55 h; IC50 (HDAC3): 1280 nM; IC50 (HDAC8): 62 nM; IC50 (HDAC1): 1150 nM; fraction unbound [3]: 0.113; IC50 (HDAC6): 8 nM; HDAC6 inhibitor rate (HDAC6): > 91% and 99.78%; Selectivity Index HDAC1/HDAC6 (HDAC6): 144; Selectivity Index HDAC2/HDAC6 (HDAC6): 62; Selectivity Index HDAC3/HDAC6 (HDAC6): 160; Selectivity Index HDAC8/HDAC6 (HDAC6): 8; Selectivity Index HDAC11/HDAC6 (HDAC6): 58; IC50 (HDAC2): 492 nM |
| O=C(CCCCCCNC(=O)[C@H]1CCCN(C(=O)c2ccc(NC(=O)Nc3cc(F)cc(F)c3)c(F)c2)C1)NO [Compound 28j, (S)-1-(4-(3-(3,5-Difluorophenyl)ureido)-3-fluorobenzoyl)-N-(7-(hydroxyamino)-7-oxoheptyl)piperidine-3-carboxamide] | 0.939 h | 100.00 | 85.62 | 73.00 | 59.75 | 50.47 | 103 nM | 0.96 L/h | 3.95 L | 20 µM·h | 13.8 µM·h | 8.1 µM | 0.08 h | 1.1 L | 3 mL/min | 4.08 h | 21.5% | 18.7 µM·h | 14.8 µM·h | 10.1 µM | Tmax ([2]; po, 50 mg/kg): 0.17 h; half-life ([2]; po, 50 mg/kg): 2.84 h; IC50 (HDAC3): 2620 nM; IC50 (HDAC8): 72 nM; IC50 (HDAC1): 1030 nM; fraction unbound [3]: 0.119; IC50 (HDAC6): 8 nM; HDAC6 inhibitor rate (HDAC6): > 91% and 98.92%; Selectivity Index HDAC1/HDAC6 (HDAC6): 129; Selectivity Index HDAC2/HDAC6 (HDAC6): 134; Selectivity Index HDAC3/HDAC6 (HDAC6): 327; Selectivity Index HDAC8/HDAC6 (HDAC6): 9; Selectivity Index HDAC11/HDAC6 (HDAC6): 132; IC50 (HDAC2): 1070 nM |
